According to patent publication EP0263506B1, “Anticonvulsant composition containing amino acid derivative and use of said amino acid derivative” (priority 1986, dated 1988):
Read-outs that look alike come from different tables or passages of the source. Marks after values point to notes of the source that are not given here.

How the values were obtained:
[1] = system: Maximal electroshock seizures (MES); experiment: Maximal electroshock seizure test (MES); format: in vivo, mice; conditions: Mus musculus, read-out: MES ED50
Description: (§1) in the eye prior to application of the electrodes so as to prevent the death of the animal. Protection in this test was defined as the abolition of the hind limb tonic extension component of the seizure. The Subcutaneous Pentylenetetrazole (Metrazol^R) Seizure Threshold Test (sc Met) entailed the administration of 85 mg/kg of pentylenetetrazole as a 0.5% solution subcutaneously in the posterior midline. […] Protection was defined as the failure to observe even a threshold seizure (a single episode of clonic spasms of at least 5 sec duration). The effects of the compounds on forced and spontaneous motor activity were evaluated in mice using the Rotorod Test (Tox) or, in some cases, as indicated herein, a horizontal screen assay (HS). The animal was placed on a one-inch diameter knurled plastic rod rotating at 6 rpm after the administration of the drug. Normal mice can remain on a rod rotating at this speed indefinitely. Neurologic toxicity was defined as the failure of the animal to remain on the rod for one minute. The MES and so Met Tests were conducted on single animals while four mice were utilized for the Tox Test. The dose effect behavior of the compounds was evaluated using the above-described procedures by the administration of varying dose levels, treating normally eight mice at each dose. Table I includes an evaluation of the Median Effective Dose (ED50) and the Median Toxic Dose (TD50) of representative compounds. Mice were tested with varying doses of the anticonvulsant to define the limits of complete protection (or toxicity) and no protection (or no toxicity), as well as three points in between these limits. The Median Effective Dose (ED50) was defined as the dose which produced the Pharmacology. […] N-Acetyl-D,L-alanine-N'-benzylamide was tested at […] as well. […] Maximal electroshock seizures (MES) were elicited with a 60 cycle alternating current of 50 mA intensity (5-7 times that necessary to elicit minimal electroschock seizures) delivered for 0.2 sec via corneal electrodes. A drop of 0.9% saline was instilled desired endpoint in 50% of the animals. The Median Toxicity Dose (TD50) was the dose which elicited evidence of minimal neurological toxicity in 50% of the animals.

[2] = Horizontal screen assay (HS), neurologic toxicity; format: in vivo; conditions: mouse; mice; Median Toxic Dose; evaluated using a horizontal screen assay (HS) as opposed to the Rotorod Test; read-out: Tox TD50
Description: as §1
The TD50 of D,L-α-acetamido-N-benzyl-3-thiopheneacetamide, D,L-α-acetamido-N-benzyl-2-thiopheneacetamide, D,L-α-acetamido-N-benzyl-2-furanacetamide, D,L-α-acetamido-N-benzyl-2-pyrroleacetamide, D,L-2-acetamido-N-benzyl-2-ethoxyacetamide and D,L-2-acetamido-N-benzyl-2-methoxyacetamide were evaluated using a horizontal screen assay (HS) as opposed to the Rotorod Test.

pentylenetetrazole = experiment: Subcutaneous Pentylenetetrazole (Metrazol) Seizure Threshold Test (sc Met); format: in vivo, mice; conditions: for ED50: Mus musculus, sc, 0.5 h, read-out: sc Met ED50
Description: as §1

[3] = system: male Carworth Farms #1 mice; experiment: Rotorod Test (Tox), neurologic toxicity; format: in vivo; conditions: Median Toxic Dose, comparison drugs
Description: The effects of the compounds on forced and spontaneous motor activity were evaluated in mice using the Rotorod Test (Tox) or, in some cases, as indicated herein, a horizontal screen assay (HS). The animal was placed on a one-inch diameter knurled plastic rod rotating at 6 rpm after the administration of the drug. Normal mice can remain on a rod rotating at this speed indefinitely. Neurologic toxicity was defined as the failure of the animal to remain on the rod for one minute. The MES and so Met Tests were conducted on single animals while four mice were utilized for the Tox Test. The dose effect behavior of the compounds was evaluated using the above-described procedures by the administration of varying dose levels, treating normally eight mice at each dose. […] Mice were tested with varying doses of the anticonvulsant to define the limits of complete protection (or toxicity) and no protection (or no toxicity), as well as three points in between these limits. […] The Median Toxicity Dose (TD50) was the dose which elicited evidence of minimal neurological toxicity in 50% of the animals.

[4] = mice, 50 mA, 60 cycle, 0.2 sec via corneal electrodes, abolition of hind limb tonic extension
[5] = mice, 85 mg/kg pentylenetetrazole subcutaneously, observed for 30 minutes

## CCOC(NC(C)=O)C(=O)NCc1ccccc1 (racemic) [D,L-2-Acetamido-N-benzyl-2-ethoxyacetamide]
[1]
  ED50: 62 mg/kg
[2]
  TD50: > 112 mg/kg

## O=C1NC(=O)C(c2ccccc2)(c2ccccc2)N1 [phenytoin, reference compound]
[1]; [4]
  ED50: 10 mg/kg
pentylenetetrazole; [5]
  sc Met ED50: not effective

## CCC1(c2ccccc2)C(=O)NC(=O)NC1=O [phenobarbital, reference compound]
[1]
  ED50: 22 mg/kg
pentylenetetrazole
  ED50: 13 mg/kg

## CC(=O)NC(C(=O)NCc1ccccc1)c1ccc[nH]1 (racemic) [D,L-α-Acetamido-N-benzyl-2-pyrroleacetamide]
[1]
  ED50: 16.1 mg/kg
[2]
  TD50: < 100 mg/kg

## CC(=O)NC(C(=O)NCc1ccccc1)c1ccsc1 (racemic) [D,L-α-Acetamido-N-benzyl-3-thiopheneacetamide]
[1]
  ED50: 87.8 mg/kg
[2]
  TD50: > 100 mg/kg

## CCC1(c2ccccc2)NC(=O)N(C)C1=O (stereo not shown) [mephenytoin]
[1]; [4]
  ED50: 61 mg/kg
[3]
  Tox TD50: 154 mg/kg
pentylenetetrazole; [5]
  ED50: 31 mg/kg

## NC(=O)NC(=O)Cc1ccccc1 [phenacemide]
[1]; [4]
  ED50: 87 mg/kg
[3]
  Tox TD50: 421 (337-549)* mg/kg
pentylenetetrazole; [5]
  ED50: 116 mg/kg

## CC(=O)NC(C(=O)NCc1ccccc1)c1cccs1 (racemic) [D,L-α-Acetamido-N-benzyl-2-thiopheneacetamide]
[1]
  ED50: 44.8 mg/kg
[2]
  TD50: 30 to 100 mg/kg

## COC(NC(C)=O)C(=O)NCc1ccccc1 (racemic) [D,L-2-Acetamido-N-benzyl-2-methoxyacetamide]
[1]
  ED50: 98.3 mg/kg
[2]
  TD50: < 300 mg/kg

## CC(=O)NC(C(=O)NCc1ccccc1)c1ccco1 (racemic) [D,L-α-Acetamido-N-benzyl-2-furanacetamide]
[1]
  ED50: 10.3 mg/kg
[2]
  TD50: 40 mg/kg
